{"source": "patent US20200253506A1", "about": "“TREATMENT OF A DISEASE OF THE GASTROINTESTINAL TRACT WITH AN INTEGRIN INHIBITOR” (Progenity, Inc., priority 2016, published 2020)", "experiment": "Tacrolimus tissue, plasma and GI content pharmacokinetics, oral vs intra-cecal ingestible device delivery", "assay_type": "in vivo", "settings": "swine; intra-cecal compared to oral; 12 hours post-dose; FIG. 76", "experimental": "No further randomization procedure was employed.\nAnimals in Group 1 received an ingestible device containing 0.8 mL of vehicle solution (80% alcohol, 20% HCO-60). Animals in Group 2 received orally […] liquid formulation of tacrolimus at 4 mg/0.8 mL per animal (Prograf: 5 mg/mL). Animals in Group 3 received intra-cecally an ingestible device containing tacrolimus at 1 mg in 0.8 mL per ingestible device. Animals in Group 4 received intra-cecally an ingestible device containing tacrolimus at 2 mg in 0.8 mL per ingestible device. Animals in Group 5 received intra-cecally an ingestible device containing tacrolimus at 4 mg in 0.8 mL per ingestible device. […]\nApproximately 200-400 mg of rectal content were collected, if available, with a fecal swab (Copan Diagnostics Nylon Flocked Dry Swabs, 502CS01). The fecal swab was pre-weighed and weighed after collection in the collection tube (Sterile Tube and Cap No Media, PFPM913S), and the sample weight was recorded. […]\nFor tissue necropsy, small intestine fluid and cecal fluid were collected separately from all the animals into two separate square plastic bottles, and stored at −20° C. The length and diameter of the cecum and the colon was measured from one animal in each group and recorded for reference. […] All samples were weighed, and the tissue sample weights were recorded. […]", "data": [{"smiles": "C=CC[C@@H]1/C=C(\\C)C[C@H](C)C[C@H](OC)[C@H]2O[C@@](O)(C(=O)C(=O)N3CCCC[C@H]3C(=O)O[C@H](/C(C)=C/[C@@H]3CC[C@@H](O)[C@H](OC)C3)[C@H](C)[C@@H](O)CC1=O)[C@H](C)C[C@@H]2OC", "note": "[tacrolimus]", "values": [{"measurement": "mean concentration of tacrolimus in the cecum tissue and the proximate colon tissue", "value": "higher"}]}]}
